Source: patent publication US6710049B2, “Azole compounds as anti-fungal agents” (Ranbaxy Laboratories Limited, priority 2000, dated 2004)
Values after ≈ are worked out from the molar mass of the structure shown.

Experiments:
[1] = test system: P variotii 22319; experiment: MIC determination (NCCLS broth method); type: cell-based, Paecillomyces variotii
Source text: (§1) The in-vitro evaluation of the antifungal activity of the compounds can be performed by determining the minimum inhibitory concentration (MIC) as shown in Table 1 which is the concentration of the test compound in Rosewell Park Memorial Institute (RPMI) 1640 liquid medium buffered with 3-(Morpholino)propanesulphonic acid (MOPS) to pH 7, at which there is significant inhibition of the particular fungi. In practice the National Committee for Clinical Laboratory Standard (NCCLS) M27A document for Candida and Cryptococcus and M38P for Aspergillus was used to determine the MIC against yeast and filamentous fungi with suitable modifications for dermatophytes to other filamentous fungi. Three quality control strains were included each time the MIC were determined and readings recorded only when the Quality Control results fell into the acceptable range. After MIC results had been recorded, 100 μl from each of the well showing no growth was spread over Sabouraud Dextrose Agar (SDA) to determine the minimum fungicidal concentration (MFC) as shown in Table 2.

[2] = test system: P variotii 22319; experiment: MFC determination (subculture on Sabouraud Dextrose Agar); type: cell-based, Paecillomyces variotii
Source text: as §1

[3] = test system: Alternaria 1051; experiment: MIC determination (NCCLS broth method); type: cell-based
Source text: as §1

[4] = test system: C krusei 6258; experiment: MIC determination (NCCLS broth method); type: cell-based
Source text: as §1

[5] = test system: C tropicalis 750; experiment: MIC determination (NCCLS broth method); type: cell-based
Source text: as §1

[6] = test system: Fusarium 2960C; experiment: MIC determination (NCCLS broth method); type: cell-based
Source text: as §1

[7] = test system: Penicillium 1641; experiment: MIC determination (NCCLS broth method); type: cell-based
Source text: as §1

[8] = test system: Fusarium 1050; experiment: MIC determination (NCCLS broth method); type: cell-based
Source text: as §1

[9] = test system: A flavus E4 - 1042; experiment: MIC determination (NCCLS broth method); type: cell-based
Source text: as §1

[10] = test system: Penicillium 2548; experiment: MIC determination (NCCLS broth method); type: cell-based
Source text: as §1

[11] = test system: C glabrata 90030; experiment: MIC determination (NCCLS broth method); type: cell-based
Source text: as §1

[12] = test system: Rhizopus 1052; experiment: MIC determination (NCCLS broth method); type: cell-based
Source text: as §1

[13] = test system: Rhizopus (Ceylon); experiment: MIC determination (NCCLS broth method); type: cell-based
Source text: as §1

[14] = test system: A niger E5 - 1047; experiment: MIC determination (NCCLS broth method); type: cell-based
Source text: as §1

[15] = test system: Penicillium 191; experiment: MIC determination (NCCLS broth method); type: cell-based
Source text: as §1

[16] = test system: A flavus E3 - 1044; experiment: MIC determination (NCCLS broth method); type: cell-based
Source text: as §1

[17] = test system: A flavus E2 - 1043; experiment: MIC determination (NCCLS broth method); type: cell-based
Source text: as §1

[18] = test system: Penicillium H - 1048; experiment: MIC determination (NCCLS broth method); type: cell-based
Source text: as §1

[19] = test system: C parapsilosis 22019; experiment: MIC determination (NCCLS broth method); type: cell-based
Source text: as §1

[20] = test system: Penicillium 3162; experiment: MIC determination (NCCLS broth method); type: cell-based
Source text: as §1

[21] = test system: A flavus P3 - 1041; experiment: MIC determination (NCCLS broth method); type: cell-based
Source text: as §1

[22] = test system: A flavus P2 - 1045; experiment: MIC determination (NCCLS broth method); type: cell-based
Source text: as §1

[23] = test system: A niger P1 - 1046; experiment: MIC determination (NCCLS broth method); type: cell-based
Source text: as §1

[24] = test system: Penicillium I - 1049; experiment: MIC determination (NCCLS broth method); type: cell-based
Source text: as §1

[25] = test system: H capsulatum; experiment: MIC determination (NCCLS broth method); type: cell-based
Source text: as §1

[26] = test system: Fusarium 1827C; experiment: MIC determination (NCCLS broth method); type: cell-based
Source text: as §1

[27] = test system: C krusei 766.1; experiment: MIC determination (NCCLS broth method); type: cell-based
Source text: as §1

[28] = test system: Mucor (Ceylon); experiment: MIC determination (NCCLS broth method); type: cell-based
Source text: as §1

[29] = test system: C neoformans M-106; experiment: MIC determination (NCCLS broth method); type: cell-based, Cryptococcus neoformans
Source text: as §1

[30] = test system: C neoformans I; experiment: MIC determination (NCCLS broth method); type: cell-based, Cryptococcus neoformans
Source text: as §1

[31] = test system: C albicans Y01.19; experiment: MIC determination (NCCLS broth method); type: cell-based, Candida albicans
Source text: as §1

[32] = test system: C albicans A-26; experiment: MIC determination (NCCLS broth method); type: cell-based, Candida albicans
Source text: as §1

[33] = test system: A fumigatus SI-1 - 1019; experiment: MIC determination (NCCLS broth method); type: cell-based, Aspergillus fumigatus
Source text: as §1

[34] = test system: All fungal pathogens; experiment: Comparative in vitro MIC, isolate panel; type: cell-based
Source text: as §1
(§2) A comparative in vitro and in vivo biologically activity data of the compound of our invention, 2-{[1R,2R]-2-(2,4-Difluorophenyl)-2-hydroxy-1-methyl-3-(1H-1,2,4-triazole-1-yl)propyl}-4-[(2′,2′,3′,3′-tetrafluoropropoxyphenyl)-3-(2H,4H)-1,2,4-thiotriazolone (Compound No. 3) with 2-[(1R,2R)-2-(2,4-difluorophenyl)-2-hydroxy-1-methyl-3-(1H-1,2,4-triazol-1-yl)propyl]-4-(2′,2′,3′,3′-tetraflouropropoxyphenyl)-3(2H,4H)-1,2,4-triazolone (TAK 187) and standard antifungal pharmaceuticals is given below: […]

[35] = test system: Penicillium spp. isolates; experiment: Comparative in vitro MIC, isolate panel; type: cell-based
Source text: as §1, §2

[36] = test system: Fusarium spp. isolates; experiment: Comparative in vitro MIC, isolate panel; type: cell-based
Source text: as §1, §2

[37] = test system: All Candida isolates; experiment: Comparative in vitro MIC, isolate panel; type: cell-based
Source text: as §1, §2

[38] = test system: Rhizoupus spp. isolates; experiment: Comparative in vitro MIC, isolate panel; type: cell-based
Source text: as §1, §2

[39] = test system: Aspergillus fumigatus isolates; experiment: Comparative in vitro MIC, isolate panel; type: cell-based
Source text: as §1, §2

[40] = test system: All Filamentous isolates; experiment: Comparative in vitro MIC, isolate panel; type: cell-based
Source text: as §1, §2

Q: `C[C@@H](n1ncn(-c2ccc(N3CCN(c4ccc(Cl)cc4)CC3)cc2)c1=S)[C@](O)(Cn1cncn1)c1ccc(F)cc1F` [Compound No. 1, 2-{[1R,2R]-2-(2,4-Difluorophenyl)-2-hydroxy-1-methyl-3-(1H-1,2,4-triazole-1-yl)propyl}-4-{4-[4-(4-chlorophenyl)-1-piperizinyl]phenyl}-3-(2H,4H)-1,2,4-thiotriazolone] was tested. Which “Minimum Inhibitory Concentration (MIC)” value [1] did it give?
A: 0.004 µg/mL

Q: What about the “Minimum Fungicidal Concentration (MFC)” value [2] of the same compound?
A: 0.06 µg/mL

Q: What about the “Minimum Inhibitory Concentration (MIC)” value [3] of the same compound?
A: 0.03 µg/mL

Q: What about the “Minimum Inhibitory Concentration (MIC)” value [4] of the same compound?
A: 0.06 µg/mL

Q: And the “Minimum Inhibitory Concentration (MIC)” value [5]?
A: 0.008 µg/mL

Q: And the “Minimum Inhibitory Concentration (MIC)” value [6]?
A: 2 µg/mL

Q: What about the “Minimum Inhibitory Concentration (MIC)” value [7] of the same compound?
A: 0.25 µg/mL

Q: What about the “Minimum Inhibitory Concentration (MIC)” value [8] of the same compound?
A: 1 µg/mL

Q: What about the “Minimum Inhibitory Concentration (MIC)” value [9] of the same compound?
A: 0.008 µg/mL

Q: And the “Minimum Inhibitory Concentration (MIC)” value [10]?
A: 0.125 µg/mL

Q: What about the “Minimum Inhibitory Concentration (MIC)” value [11] of the same compound?
A: 0.06 µg/mL

Q: And the “Minimum Inhibitory Concentration (MIC)” value [12]?
A: 0.0005 µg/mL

Q: And the “Minimum Inhibitory Concentration (MIC)” value [13]?
A: 0.125 µg/mL

Q: What about the “Minimum Inhibitory Concentration (MIC)” value [14] of the same compound?
A: 0.03 µg/mL

Q: And the “Minimum Inhibitory Concentration (MIC)” value [15]?
A: 0.06 µg/mL

Q: And the “Minimum Inhibitory Concentration (MIC)” value [16]?
A: 0.016 µg/mL

Q: What about the “Minimum Inhibitory Concentration (MIC)” value [17] of the same compound?
A: 0.008 µg/mL

Q: And the “Minimum Inhibitory Concentration (MIC)” value [18]?
A: 0.03 µg/mL

Q: What about the “Minimum Inhibitory Concentration (MIC)” value [19] of the same compound?
A: 0.004 µg/mL

Q: And the “Minimum Inhibitory Concentration (MIC)” value [20]?
A: 0.03 µg/mL

Q: What about the “Minimum Inhibitory Concentration (MIC)” value [21] of the same compound?
A: 0.008 µg/mL

Q: And the “Minimum Inhibitory Concentration (MIC)” value [22]?
A: 0.016 µg/mL

Q: What about the “Minimum Inhibitory Concentration (MIC)” value [23] of the same compound?
A: 0.03 µg/mL

Q: What about the “Minimum Inhibitory Concentration (MIC)” value [24] of the same compound?
A: 0.03 µg/mL

Q: What about the “Minimum Inhibitory Concentration (MIC)” value [25] of the same compound?
A: 0.06 µg/mL

Q: And the “Minimum Inhibitory Concentration (MIC)” value [26]?
A: 2 µg/mL

Q: And the “Minimum Inhibitory Concentration (MIC)” value [27]?
A: 0.125 µg/mL

Q: And the “Minimum Inhibitory Concentration (MIC)” value [28]?
A: 0.004 µg/mL

Q: And the “Minimum Inhibitory Concentration (MIC)” value [29]?
A: 0.008 µg/mL

Q: What about the “Minimum Inhibitory Concentration (MIC)” value [30] of the same compound?
A: 0.008 µg/mL

Q: And the “Minimum Inhibitory Concentration (MIC)” value [31]?
A: 0.03 µg/mL

Q: What about the “Minimum Inhibitory Concentration (MIC)” value [32] of the same compound?
A: 0.016 µg/mL

Q: What about the “Minimum Inhibitory Concentration (MIC)” value [33] of the same compound?
A: 0.016 µg/mL

Q: What does the source list for `C[C@@H](n1ncn(-c2ccc(OCC(F)(F)C(F)F)cc2)c1=O)[C@](O)(Cn1cncn1)c1ccc(F)cc1F` [TAK 187, 2-[(1R,2R)-2-(2,4-difluorophenyl)-2-hydroxy-1-methyl-3-(1H-1,2,4-triazol-1-yl)propyl]-4-(2′,2′,3′,3′-tetraflouropropoxyphenyl)-3(2H,4H)-1,2,4-triazolone]?
A: Minimum Inhibitory Concentration (MIC) [1]: 0.25 µg/mL; Minimum Fungicidal Concentration (MFC) [2]: 32 µg/mL; Minimum Inhibitory Concentration (MIC) [3]: 1 µg/mL; Minimum Inhibitory Concentration (MIC) [4]: 2 µg/mL; Minimum Inhibitory Concentration (MIC) [5]: 0.125 µg/mL; Minimum Inhibitory Concentration (MIC) [6]: 32 µg/mL; Minimum Inhibitory Concentration (MIC) [7]: 16 µg/mL; Minimum Inhibitory Concentration (MIC) [8]: 64 µg/mL; Minimum Inhibitory Concentration (MIC) [9]: 4 µg/mL; Minimum Inhibitory Concentration (MIC) [10]: 16 µg/mL; Minimum Inhibitory Concentration (MIC) [11]: 0.5 µg/mL; Minimum Inhibitory Concentration (MIC) [12]: 8 µg/mL; Minimum Inhibitory Concentration (MIC) [13]: 2 µg/mL; Minimum Inhibitory Concentration (MIC) [14]: 2 µg/mL; Minimum Inhibitory Concentration (MIC) [15]: 16 µg/mL; Minimum Inhibitory Concentration (MIC) [16]: 1 µg/mL; Minimum Inhibitory Concentration (MIC) [17]: 4 µg/mL; Minimum Inhibitory Concentration (MIC) [18]: 16 µg/mL; Minimum Inhibitory Concentration (MIC) [19]: 0.03 µg/mL; Minimum Inhibitory Concentration (MIC) [20]: 32 µg/mL; Minimum Inhibitory Concentration (MIC) [21]: 8 µg/mL; Minimum Inhibitory Concentration (MIC) [22]: 4 µg/mL; Minimum Inhibitory Concentration (MIC) [23]: 0.5 µg/mL; Minimum Inhibitory Concentration (MIC) [24]: 16 µg/mL; Minimum Inhibitory Concentration (MIC) [25]: 0.25 µg/mL; Minimum Inhibitory Concentration (MIC) [26]: 32 µg/mL; Minimum Inhibitory Concentration (MIC) [27]: 2 µg/mL; Minimum Inhibitory Concentration (MIC) [28]: 8 µg/mL; Minimum Inhibitory Concentration (MIC) [29]: 0.06 µg/mL; Minimum Inhibitory Concentration (MIC) [30]: 0.03 µg/mL; Minimum Inhibitory Concentration (MIC) [31]: 2 µg/mL; MIC50 [34]: 8 µg/mL (≈ 14.7 µM); MIC90 [34]: 32 µg/mL (≈ 59 µM); MIC G.M. [34]: 4.16 µg/mL (≈ 7.67 µM); MIC50 [35]: 16 µg/mL (≈ 29.5 µM); MIC90 [35]: 64 µg/mL (≈ 118 µM); MIC G.M. [35]: 18.664 µg/mL (≈ 34.4 µM); MIC50 [36]: 32 µg/mL (≈ 59 µM); MIC90 [36]: 64 µg/mL (≈ 118 µM); MIC G.M. [36]: 45.255 µg/mL (≈ 83.4 µM); MIC50 [37]: 0.5 µg/mL (≈ 0.922 µM); MIC90 [37]: 2 µg/mL (≈ 3.69 µM); MIC G.M. [37]: 0.45 µg/mL (≈ 0.83 µM); MIC50 [38]: 4 µg/mL (≈ 7.37 µM); MIC90 [38]: 4 µg/mL (≈ 7.37 µM); MIC G.M. [38]: 4 µg/mL (≈ 7.37 µM); MIC50 [39]: 8 µg/mL (≈ 14.7 µM); MIC90 [39]: 8 µg/mL (≈ 14.7 µM); MIC G.M. [39]: 7.4 µg/mL (≈ 13.6 µM); MIC50 [40]: 8 µg/mL (≈ 14.7 µM); MIC90 [40]: 32 µg/mL (≈ 59 µM); MIC G.M. [40]: 7.246 µg/mL (≈ 13.4 µM); Minimum Inhibitory Concentration (MIC) [33]: 2 µg/mL
